Results reported in paper PMC10866072, “Design, synthesis, molecular modelling and biological evaluation of novel 6-amino-5-cyano-2-thiopyrimidine derivatives as potent anticancer agents against leukemia and apoptotic inducers” (Journal of Enzyme Inhibition and Medicinal Chemistry, 2024).

Experiments:
[1] = test system: SW-620; format: cell-based
[2] = test system: NCI-H226; format: cell-based
[3] = test system: MDA-MB-468; format: cell-based
[4] = test system: Breast cancer cell lines; assay: NCI-60 five-dose, subpanel
Excerpt: (§2) A measure of a compound’s selectivity for a given cell line is the ratio created by dividing the full panel mean graph midpoints (MG-MID) concentration by the individual subpanel MG-MID concentrations (obtained as the average sensitivity of all the cell lines in a given subpanel to the test compound).
(§3) Assessment of selectivity of a compound depends on the ratio obtained by dividing the full panel MID ^a by their individual subpanel MID ^b (µM) where MID^a is the average sensitivity of all cell lines towards the test agent (µM).

[5] = test system: Colon cancer cell lines; assay: NCI-60 five-dose, subpanel
Excerpt: (§4) Furthermore, the average sensitivity of all cell lines to the compound is termed as the full panel mean graph midpoints (MG-MID). The complete panel mean graph midpoints refers to the average sensitivity of all cell lines to the chemical (MG-MID). A measure of a compound’s selectivity for a given cell line is the ratio created by dividing the full panel mean graph midpoints (MG-MID) concentration by the individual subpanel MG-MID concentrations (obtained as the average sensitivity of all the cell lines in a given subpanel to the test compound).
as §3

[6] = test system: Non-small cell lung cancer cell lines; assay: NCI-60 five-dose, subpanel
Excerpt: as §4, §3

[7] = test system: HCT-15; format: cell-based
[8] = test system: IGROV1; format: cell-based
[9] = test system: A498; format: cell-based
[10] = test system: UACC-257; format: cell-based
[11] = test system: BT-549; format: cell-based
[12] = test system: Renal cancer cell lines; assay: NCI-60 five-dose, subpanel
Excerpt: as §2, §3

[13] = test system: KM12; format: cell-based
[14] = test system: NCI/ADR-RES; format: cell-based
[15] = test system: SF-295; format: cell-based
[16] = test system: PC-3; format: cell-based
[17] = test system: COLO 205; format: cell-based
[18] = test system: leukaemia SR cells; assay: Annexin V-FITC/PI apoptosis and necrosis assay; format: cell-based, human; conditions: 48 h treatment
Procedure: (§1) For more assessment of compound 1c, apoptosis assay was performed using annexin V-FITC Apoptosis detection kit (Biovision, cat#: K101-25) followed by flow cytometric analysis[92]^,[93]. Briefly, HL60 and leukaemia SR cells were cultured under optimum conditions followed by compound I c treatment for 48 h. then, washed in PBS, centrifuged, and resuspended in 500 µl of 1 x binding buffer. Moreover, 5 µl of annexin V-FITC, and 5 µl of propidium iodide were added and incubated in dark for 5 min. Finally, apoptotic cells were detected using flow cytometer as well as PI staining by emission signal detector. FACS Calibur flow cytometer (Becton Dickinson Biosciences) was used to analyse the cells’ apoptosis.

[19] = test system: HL60 cells; assay: Annexin V-FITC/PI apoptosis and necrosis assay; format: cell-based, human; conditions: HL60, 48 h treatment
Procedure: as §1

[20] = test system: A549/ATCC; format: cell-based
[21] = test system: TK-10; format: cell-based
[22] = test system: HCT-116; format: cell-based
[23] = test system: HS 578T; format: cell-based
[24] = test system: MDA-MB-231/ATCC; format: cell-based
[25] = test system: MALME-3M; format: cell-based
[26] = test system: ACHN; format: cell-based
[27] = test system: 786-0; format: cell-based
[28] = test system: SR; format: cell-based
[29] = Homo sapiens, one dose 10^-5 M, 48 h
[30] = Homo sapiens, five-dose, read-out: LC50 (the source's name)
[31] = Homo sapiens, read-out: GI50 Subpanel MID^b
[32] = Homo sapiens, one dose 10^-5 M, 48 h, read-out: % growth

`N#Cc1c(N)nc(S)nc1-c1ccc(Cl)cc1Cl` [Compound 1c, 4-Amino-6–(2,4-dichlorophenyl)-2-mercaptopyrimidine-5-carbonitrile] was tested. Which GI50 ([1]; Homo sapiens, five-dose) did it give?
The GI50 was 12 µM.

And the LC50 ([1]; Homo sapiens, five-dose)?
The LC50 was 78.6 µM.

And the % growth at 10 µM [1, 29]?
The % growth at 10 µM was 45.7%.

What about the TGI ([1]; five-dose) of the same compound?
The TGI was 30.70 µM.

What about the GI50 ([2]; Homo sapiens, five-dose) of the same compound?
The GI50 was 16.5 µM.

What about the LC50 (concentration killing 50% of tumour cells) ([2]; Homo sapiens, five-dose) of the same compound?
The LC50 (concentration killing 50% of tumour cells) was 82 µM.

And the % growth at 10 µM [2, 29]?
The % growth at 10 µM was 64.4%.

And the TGI ([2]; five-dose)?
The TGI was 36.80 µM.

What about the GI50 ([3]; Homo sapiens, five-dose) of the same compound?
The GI50 was 11.4 µM.

And the CC50 [3, 30]?
Its CC50 is 55.7 µM.

And the percent cell growth at 10 µM [3, 29]?
Its percent cell growth at 10 µM is 35%.

What about the TGI ([3]; five-dose) of the same compound?
The TGI was 25.20 µM.

What about the GI50 [4, 31] of the same compound?
Its GI50 is 11.4 µM.

What about the “Selectivity ratio (full panel MID^a / subpanel MID^b, GI50 level)” value ([4]; breast cancer) of the same compound?
The value was 1.13.

And the GI50 [5, 31]?
The GI50 was 10.9 µM.

What about the “Selectivity ratio (full panel MID^a / subpanel MID^b, GI50 level)” value ([5]; colon cancer) of the same compound?
Its value is 1.2.

What about the GI50 [6, 31] of the same compound?
Its GI50 is 18.1 µM.

What about the “Selectivity ratio (full panel MID^a / subpanel MID^b, GI50 level)” value ([6]; non-small cell lung cancer) of the same compound?
The value was 0.7.

What about the GI50 ([7]; Homo sapiens, five-dose) of the same compound?
The GI50 was 0.08 µM.

And the CC50 [7, 30]?
The CC50 was 97.9 µM.

And the activity at 10 µM [7, 32]?
The activity at 10 µM was 10.9%.

What about the TGI ([7]; five-dose) of the same compound?
Its TGI is 17.90 µM.

And the GI50 ([8]; Homo sapiens, IGROV-1, five-dose)?
Its GI50 is 19.2 µM.

What about the CC50 ([8]; Homo sapiens, IGROV-1, five-dose, read-out: LC50 (the source's name)) of the same compound?
Its CC50 is 87.6 µM.

What about the activity at 10 µM ([8]; Homo sapiens, IGROV-1, one dose 10^-5 M, 48 h, read-out: % growth) of the same compound?
The activity at 10 µM was 65.7%.

And the TGI ([8]; five-dose)?
The TGI was 41.00 µM.

And the GI50 ([9]; Homo sapiens, five-dose)?
Its GI50 is 19.8 µM.

What about the LC50 ([9]; Homo sapiens, five-dose) of the same compound?
The LC50 was 78.5 µM.

And the % growth at 10 µM [9, 29]?
The % growth at 10 µM was 137%.

And the TGI ([9]; five-dose)?
The TGI was 39.40 µM.

What about the GI50 ([10]; Homo sapiens, five-dose) of the same compound?
Its GI50 is 14.7 µM.

And the CC50 [10, 30]?
The CC50 was 67.2 µM.

And the percent cell growth at 10 µM [10, 29]?
The percent cell growth at 10 µM was 77.7%.

And the TGI ([10]; five-dose)?
Its TGI is 31.50 µM.

What about the GI50 ([11]; Homo sapiens, five-dose) of the same compound?
The GI50 was 14.9 µM.

What about the CC50 [11, 30] of the same compound?
The CC50 was 62.7 µM.

What about the % cell growth at 10 µM [11, 29] of the same compound?
Its % cell growth at 10 µM is 42.1%.

And the TGI ([11]; five-dose)?
The TGI was 30.50 µM.

What about the GI50 [12, 31] of the same compound?
The GI50 was 14.2 µM.

What about the “Selectivity ratio (full panel MID^a / subpanel MID^b, GI50 level)” value ([12]; renal cancer) of the same compound?
Its value is 0.9.

And the GI50 ([13]; Homo sapiens, five-dose)?
The GI50 was 19 µM.

What about the LC50 ([13]; Homo sapiens, five-dose) of the same compound?
Its LC50 is 80.1 µM.

What about the % growth at 10 µM [13, 29] of the same compound?
Its % growth at 10 µM is 49.5%.

What about the TGI ([13]; five-dose) of the same compound?
Its TGI is 39.00 µM.

And the GI50 ([14]; Homo sapiens, five-dose)?
Its GI50 is 0.7 µM.

And the CC50 [14, 30]?
Its CC50 is greater than 100 µM.

And the cell growth percent at 10 µM [14, 29]?
The cell growth percent at 10 µM was 37.9%.

And the TGI ([14]; five-dose)?
Its TGI is 26.20 µM.

What about the GI50 ([15]; Homo sapiens, five-dose) of the same compound?
The GI50 was 10.4 µM.

And the CC50 [15, 30]?
Its CC50 is 49 µM.

What about the % cell growth at 10 µM [15, 29] of the same compound?
The % cell growth at 10 µM was 78.1%.

And the TGI ([15]; five-dose)?
The TGI was 22.60 µM.

And the GI50 ([16]; Homo sapiens, five-dose)?
Its GI50 is 11.1 µM.

What about the CC50 [16, 30] of the same compound?
Its CC50 is greater than 100 µM.

And the percent cell growth at 10 µM [16, 29]?
Its percent cell growth at 10 µM is 49.8%.

What about the TGI ([16]; five-dose) of the same compound?
Its TGI is 48.20 µM.

What about the GI50 ([17]; Homo sapiens, five-dose) of the same compound?
The GI50 was 19 µM.

And the CC50 [17, 30]?
Its CC50 is 70 µM.

And the % growth at 10 µM [17, 29]?
The % growth at 10 µM was 80.5%.

And the TGI ([17]; five-dose)?
The TGI was 36.50 µM.

And the early apoptosis [18]?
The early apoptosis was 14.97%.

And the late apoptosis [18]?
Its late apoptosis is 23.02%.

What about the necrosis percentage [18] of the same compound?
The necrosis percentage was 4.72%.

And the early apoptosis [19]?
The early apoptosis was 23.79%.

What about the late apoptosis [19] of the same compound?
Its late apoptosis is 9.89%.

And the necrosis percentage [19]?
The necrosis percentage was 3.41%.

And the GI50 ([20]; Homo sapiens, five-dose)?
The GI50 was 25.8 µM.

And the LC50 ([20]; Homo sapiens, five-dose)?
Its LC50 is greater than 100 µM.

And the % growth at 10 µM [20, 29]?
The % growth at 10 µM was 90.1%.

What about the TGI ([20]; five-dose) of the same compound?
Its TGI is 77.40 µM.

And the GI50 ([21]; Homo sapiens, five-dose)?
The GI50 was 21.5 µM.

And the LC50 (50% lethal concentration) ([21]; Homo sapiens, five-dose)?
Its LC50 (50% lethal concentration) is greater than 100 µM.

What about the % cell growth at 10 µM [21, 29] of the same compound?
The % cell growth at 10 µM was 114%.

And the TGI ([21]; five-dose)?
The TGI was 50.20 µM.

What about the GI50 ([22]; Homo sapiens, five-dose) of the same compound?
Its GI50 is 0.06 µM.

What about the CC50 [22, 30] of the same compound?
Its CC50 is 63.6 µM.

And the activity at 10 µM [22, 32]?
The activity at 10 µM was -18.8%.

What about the TGI ([22]; five-dose) of the same compound?
The TGI was 17.90 µM.

And the “% growth” value ([22]; one dose 10^-5 M, 48 h)?
Its value is -18.77%.

And the GI50 ([23]; Homo sapiens, five-dose, HS 578 T)?
Its GI50 is 18.8 µM.

What about the CC50 ([23]; Homo sapiens, five-dose, HS 578 T, read-out: LC50 (the source's name)) of the same compound?
The CC50 was greater than 100 µM.

And the activity at 10 µM ([23]; Homo sapiens, one dose 10^-5 M, 48 h, HS 578T, read-out: % growth)?
Its activity at 10 µM is 75.3%.

What about the TGI ([23]; five-dose, HS 578 T) of the same compound?
Its TGI is 92.60 µM.

What about the GI50 ([24]; Homo sapiens, five-dose) of the same compound?
The GI50 was 13.1 µM.

What about the LC50 ([24]; Homo sapiens, five-dose) of the same compound?
Its LC50 is 58.1 µM.

And the % growth at 10 µM [24, 29]?
Its % growth at 10 µM is 51.9%.

What about the TGI ([24]; five-dose) of the same compound?
The TGI was 27.60 µM.

And the GI50 ([25]; Homo sapiens, five-dose)?
The GI50 was 15.3 µM.

What about the CC50 [25, 30] of the same compound?
Its CC50 is 69.7 µM.

What about the % growth at 10 µM [25, 29] of the same compound?
The % growth at 10 µM was 4.96%.

What about the TGI ([25]; five-dose) of the same compound?
Its TGI is 32.70 µM.

What about the GI50 ([26]; Homo sapiens, five-dose) of the same compound?
The GI50 was 16.5 µM.

What about the CC50 [26, 30] of the same compound?
The CC50 was 62.1 µM.

And the % growth at 10 µM [26, 29]?
The % growth at 10 µM was 19.6%.

And the TGI ([26]; five-dose)?
Its TGI is 32.00 µM.

What about the GI50 ([27]; Homo sapiens, five-dose) of the same compound?
The GI50 was 17.5 µM.

What about the CC50 [27, 30] of the same compound?
Its CC50 is 99.1 µM.

What about the % growth at 10 µM [27, 29] of the same compound?
The % growth at 10 µM was 67%.

What about the TGI ([27]; five-dose) of the same compound?
The TGI was 41.60 µM.

What about the GI50 ([28]; Homo sapiens, five-dose) of the same compound?
Its GI50 is 0.14 µM.

What about the CC50 [28, 30] of the same compound?
Its CC50 is greater than 100 µM.

What about the percent cell growth at 10 µM [28, 29] of the same compound?
Its percent cell growth at 10 µM is 2.54%.

And the TGI ([28]; five-dose)?
The TGI was 23.70 µM.
